Results from patent publication US10287295B2, “TGF-β inhibitors” (Rigel Pharmaceuticals, Inc., priority 2015, dated 2019).

Legend:
[1] = test system: GDF8 signaling (GDF pSMAD, MPC11); assay: AlphaScreen SureFire SMAD3 (p-Ser423/425) assay, inhibition of GDF8 signaling; format: cell-based; details: Mus musculus, MPC-11, inhibition of GDF8 signaling, p-SMAD3 readout
[2] = test system: TGF-β signaling (TGF-β pSMAD, MPC-11); assay: AlphaScreen SureFire SMAD3 (p-Ser423/425) assay, inhibition of TGF-β signaling; format: cell-based; details: Mus musculus, MPC-11, inhibition of TGF-β signaling, p-SMAD3 readout

| Structure (SMILES) | IC50 [1] [nM] | IC50 [2] [nM] |
| --- | --- | --- |
| Cn1cnc(-c2ccc(F)cc2)c1-c1ccc2cn[nH]c2c1 [Compound 49, 6-(4-(4-Fluorophenyl)-1-methyl-1H-imidazol-5-yl)-1H-indazole] | 570 | 1210 |
| Cc1cc(-c2nc(C)n(C)c2-c2ccc3[nH]ncc3c2)ccc1F [Compound 52, 5-(4-(4-Fluoro-3-methylphenyl)-1,2-dimethyl-1H-imidazol-5-yl)-1H-indazole] | 210 | 910 |
| Cc1cc(-c2nc(C)n(C)c2-c2ccc3cn[nH]c3c2)ccc1F [Compound 53, 6-(4-(4-Fluoro-3-methylphenyl)-1,2-dimethyl-1H-imidazol-5-yl)-1H-indazole] | 780 | 3340 |
| Cc1cc(-c2nc(C)n(C)c2-c2ccc3ncsc3c2)ccc1F [Compound 55, 6-(4-(4-Fluoro-3-methylphenyl)-1,2-dimethyl-1H-imidazol-5-yl)benzo[d]thiazole] | 840 | 7760 |
| Cc1cccc(-c2nc(C)n(C)c2-c2ccc3[nH]ncc3c2)c1 [Compound 56, 5-(1,2-Dimethyl-4-(m-tolyl)-1H-imidazol-5-yl)-1H-indazole] | 730 | 5300 |
| Cc1cccc(-c2nc(C)n(C)c2-c2ccc3cn[nH]c3c2)c1 [Compound 57, 6-(1,2-Dimethyl-4-(m-tolyl)-1H-imidazol-5-yl)-1H-indazole] | 710 | 9210 |
| Cc1cccc(-c2nc(C)n(C)c2-c2ccc3ncsc3c2)c1 [Compound 59, 6-(1,2-Dimethyl-4-(m-tolyl)-1H-imidazol-5-yl)benzo[d]thiazole] | 690 | 6750 |
| COc1ccc(-c2ncn(C)c2-c2ccc3[nH]ncc3c2)cc1 [Compound 69, 5-(4-(4-Methoxyphenyl)-1-methyl-1H-imidazol-5-yl)-1H-indazole] | 140 | 1770 |
| COc1ccc(-c2ncn(C)c2-c2ccc3cn[nH]c3c2)cc1 [Compound 70, 6-(4-(4-Methoxyphenyl)-1-methyl-1H-imidazol-5-yl)-1H-indazole] | 700 | 5220 |
| Cc1nc(-c2ccc(F)c(C)c2)c(-c2ccc3[nH]ncc3c2)[nH]1 [Compound 71, 5-(4-(4-Fluoro-3-methylphenyl)-2-methyl-1H-imidazol-5-yl)-1H-indazole] | 90 | 800 |
| Cc1nc(-c2ccc(F)c(C)c2)c(-c2ccc3cn[nH]c3c2)[nH]1 [Compound 72, 6-(4-(4-Fluoro-3-methylphenyl)-2-methyl-1H-imidazol-5-yl)-1H-indazole] | 100 | 970 |
| Cc1nc(-c2ccc(F)c(C)c2)c(-c2ccc3ncsc3c2)[nH]1 [Compound 73, 6-(4-(4-Fluoro-3-methylphenyl)-2-methyl-1H-imidazol-5-yl)benzo[d]thiazole] | 100 | 950 |
| Cc1nc(-c2ccc(F)c(C)c2)c(-c2ccc3nccn3c2)[nH]1 [Compound 74, 6-(4-(4-Fluoro-3-methylphenyl)-2-methyl-1H-imidazol-5-yl)imidazo[1,2-a]pyridine] | 200 | 1410 |
| Cc1nc(-c2ccc(F)c(C)c2)c(-c2ccc3ncccc3c2)[nH]1 [Compound 75, 6-(4-(4-Fluoro-3-methylphenyl)-2-methyl-1H-imidazol-5-yl)quinoline] | 510 | 4390 |
| Cc1nc(-c2ccc(F)c(C)c2)c(-c2ccc3nccnc3c2)[nH]1 [Compound 76, 6-(4-(4-Fluoro-3-methylphenyl)-2-methyl-1H-imidazol-5-yl)quinoxaline] | 190 | 1210 |
| Cc1nc(-c2ccc(F)cc2)c(-c2ccc3[nH]ncc3c2)[nH]1 [Compound 77, 5-(4-(4-Fluorophenyl)-2-methyl-1H-imidazol-5-yl)-1H-indazole] | 220 | 1430 |
| Cc1nc(-c2ccc(F)cc2)c(-c2ccc3cn[nH]c3c2)[nH]1 [Compound 78, 6-(4-(4-Fluorophenyl)-2-methyl-1H-imidazol-5-yl)-1H-indazole] | 290 | 2470 |
| Cc1nc(-c2ccc(F)cc2)c(-c2ccc3ncsc3c2)[nH]1 [Compound 80, 6-(4-(4-Fluorophenyl)-2-methyl-1H-imidazol-5-yl)benzo[d]thiazole] | 220 | 1630 |
| Cc1nc(-c2ccc(F)cc2)c(-c2ccc3nccn3c2)[nH]1 [Compound 81, 6-(4-(4-Fluorophenyl)-2-methyl-1H-imidazol-5-yl)imidazo[1,2-a]pyridine] | 390 | 2620 |
| Cc1nc(-c2ccc(F)cc2)c(-c2ccc3nccnc3c2)[nH]1 [Compound 82, 6-(4-(4-Fluorophenyl)-2-methyl-1H-imidazol-5-yl)quinoxaline] | 480 | 3270 |
| Cc1nc(-c2ccc(F)c(F)c2)c(-c2ccc3[nH]ncc3c2)[nH]1 [Compound 83, 5-(4-(3,4-Difluorophenyl)-2-methyl-1H-imidazol-5-yl)-1H-indazole] | 130 | 1330 |
| Cc1nc(-c2ccc(F)c(F)c2)c(-c2ccc3cn[nH]c3c2)[nH]1 [Compound 84, 6-(4-(3,4-Difluorophenyl)-2-methyl-1H-imidazol-5-yl)-1H-indazole] | 320 | 2900 |
| Cc1nc(-c2cc(F)c(F)c(F)c2)c(-c2ccc3[nH]ncc3c2)[nH]1 [Compound 90, 5-(2-Methyl-4-(3,4,5-trifluorophenyl)-1H-imidazol-5-yl)-1H-indazole] | 630 | 3560 |
| Cc1nc(-c2cc(F)c(F)c(F)c2)c(-c2ccc3cn[nH]c3c2)[nH]1 [Compound 91, 6-(2-Methyl-4-(3,4,5-trifluorophenyl)-1H-imidazol-5-yl)-1H-indazole] | 390 | 2230 |

More lines, now with the values ahead:

| IC50 [1] [nM] | IC50 [2] [nM] | Structure (SMILES) |
| --- | --- | --- |
| 1020 | 1870 | Cn1cnc(-c2ccc(F)cc2)c1-c1ccc2ncn(C)c2c1 [Compound 50, 6-(4-(4-Fluorophenyl)-1-methyl-1H-imidazol-5-yl)-1-methyl-1H-benzo[d]imidazole] |
| 780 | 2710 | Cn1cnc(-c2ccc(F)cc2)c1-c1ccc2ncsc2c1 [Compound 51, 6-(4-(4-Fluorophenyl)-1-methyl-1H-imidazol-5-yl)benzo[d]thiazole] |
| 410 | 3100 | Cc1cc(-c2nc(C)n(C)c2-c2ccc3ncn(C)c3c2)ccc1F [Compound 54, 6-(4-(4-Fluoro-3-methylphenyl)-1,2-dimethyl-1H-imidazol-5-yl)-1-methyl-1H-benzo[d]imidazole] |
| 990 | 9640 | Cc1cccc(-c2nc(C)n(C)c2-c2ccc3ncn(C)c3c2)c1 [Compound 58, 6-(1,2-Dimethyl-4-(m-tolyl)-1H-imidazol-5-yl)-1-methyl-1H-benzo[d]imidazole] |
| 20 | 60 | Cn1cnc(-c2cccc(Cl)c2)c1-c1ccc2[nH]ncc2c1 [Compound 60, 5-(4-(3-Chlorophenyl)-1-methyl-1H-imidazol-5-yl)-1H-indazole] |
| 30 | 150 | Cn1cnc(-c2cccc(Cl)c2)c1-c1ccc2cn[nH]c2c1 [Compound 61, 6-(4-(3-Chlorophenyl)-1-methyl-1H-imidazol-5-yl)-1H-indazole] |
| 50 | 220 | Cn1cnc(-c2cccc(Cl)c2)c1-c1ccc2ncn(C)c2c1 [Compound 62, 6-(4-(3-Chlorophenyl)-1-methyl-1H-imidazol-5-yl)-1-methyl-1H-benzo[d]imidazole] |
| 60 | 230 | Cn1cnc(-c2cccc(Cl)c2)c1-c1ccc2ncsc2c1 [Compound 63, 6-(4-(3-Chlorophenyl)-1-methyl-1H-imidazol-5-yl)benzo[d]thiazole] |
| 90 | 270 | Cn1cnc(-c2ccc(F)c(F)c2)c1-c1ccc2[nH]ncc2c1 [Compound 64, 5-(4-(3,4-Difluorophenyl)-1-methyl-1H-imidazol-5-yl)-1H-indazole] |
| 520 | 980 | Cn1cnc(-c2ccc(F)c(F)c2)c1-c1ccc2ncn(C)c2c1 [Compound 66, 6-(4-(3,4-Difluorophenyl)-1-methyl-1H-imidazol-5-yl)-1-methyl-1H-benzo[d]imidazole] |
| 580 | 1680 | Cn1cnc(-c2ccc(F)c(F)c2)c1-c1ccc2ncsc2c1 [Compound 67, 6-(4-(3,4-Difluorophenyl)-1-methyl-1H-imidazol-5-yl)benzo[d]thiazole] |
| 1050 | 2870 | Cn1cnc(-c2ccc(F)c(F)c2)c1-c1ccc2nccnc2c1 [Compound 68, 6-(4-(3,4-Difluorophenyl)-1-methyl-1H-imidazol-5-yl)quinoxaline] |
| 110 | 850 | Cc1nc(-c2ccc(F)cc2)c(-c2ccc3ncn(C)c3c2)[nH]1 [Compound 79, 6-(4-(4-Fluorophenyl)-2-methyl-1H-imidazol-5-yl)-1-methyl-1H-benzo[d]imidazole] |
| 180 | 670 | Cc1nc(-c2ccc(F)c(F)c2)c(-c2ccc3ncn(C)c3c2)[nH]1 [Compound 85, 6-(4-(3,4-Difluorophenyl)-2-methyl-1H-imidazol-5-yl)-1-methyl-1H-benzo[d]imidazole] |
| 220 | 1280 | Cc1nc(-c2ccc(F)c(F)c2)c(-c2ccc3ncsc3c2)[nH]1 [Compound 86, 6-(4-(3,4-Difluorophenyl)-2-methyl-1H-imidazol-5-yl)benzo[d]thiazole] |
| 330 | 3460 | Cc1nc(-c2ccc(F)c(F)c2)c(-c2ccc3nccn3c2)[nH]1 [Compound 87, 6-(4-(3,4-Difluorophenyl)-2-methyl-1H-imidazol-5-yl)imidazo[1,2-a]pyridine] |
| 1020 | 11500 | Cc1nc(-c2ccc(F)c(F)c2)c(-c2ccc3ncccc3c2)[nH]1 [Compound 88, 6-(4-(3,4-Difluorophenyl)-2-methyl-1H-imidazol-5-yl)quinoline] |
| 430 | 4190 | Cc1nc(-c2ccc(F)c(F)c2)c(-c2ccc3nccnc3c2)[nH]1 [Compound 89, 6-(4-(3,4-Difluorophenyl)-2-methyl-1H-imidazol-5-yl)quinoxaline] |
